# From patent publication US20230349922A1, “H2 Blockers Targeting Liver Macrophages for the Prevention and Treatment of Liver Disease and Cancer” (Université de Strasbourg, priority 2020, published 2023)
# Key:
# [1] = patients, after a 300 mg oral dose; cited from earlier work
# [2] = test system: tumor associated macrophages (TAMs); experiment: IL6 expression in M1-polarized tumor associated macrophages from patient HCCs; assay type: cell-based, human; settings: patient-derived tumor macrophages
# Protocol: FIG. 5. Effect of Nizatidine and HRH2 KO on Cytokine Expression in a Cell Culture Model for M1 Macrophages. (A) Representative picture of differentiated macrophages. To generate macrophage-like cells (MO), THP-1 cells were treated with PMA for 24 hours. To generate M1-polarized THP-1 macrophages, THP-1 cells were treated with PMA plus LPS and IFNγ. M1-polarized THP-1 were treated with nizatidine for 48 hours. (B) Gene expression of different cytokines was measured by qRT-PCR. Results are expressed as mean+s.e.m from 3 independent experiments performed in triplicate. * denotes p<0.05; ** denotes p<0.01; *** denotes p<0.001. (C) Representative picture of M1 differentiated patient-derived Kupffer cells. To generate M1-polarized macrophages, patient Kupffer cells were treated with LPS and IFNγ. (D) Gene expression of different cytokines was measured by qRT-PCR. Results are expressed as mean+s.d. from one experiment performed in duplicate. (E) IL6 expression in M1-polarized tumor associated macrophages (TAMs) isolated from different patient HCCs and treated with nizatidine. Results are expressed as mean+/−SD from one experiment performed in triplicate or quadruplicate. […] KO efficacy was assessed at genetic level by T7 endonuclease assay. […] Right: Pro-inflammatory cytokines and markers expression were analyzed by qRT-PCR (mean+/−SD n=3, one representative experiment out of two is shown).
# [3] = test system: M1-polarized THP-1 macrophages; experiment: Cytokine expression by qRT-PCR in M1-polarized THP-1 macrophages; assay type: cell-based, human
# Protocol: Real-Time qRT-PCR. cDNAs were synthetized by reverse transcription using SuperScript III First-Strand Synthesis SuperMix (Life Technologies). Expression of mouse IL6, TNFα and IL1β was analyzed by quantitative real-time PCR using TaqMan Gene Expression Assays (Thermo Fisher Scientific) on the CFX96 Touch Real-Time PCR Detection System PCR system (Bio-Rad). Expression of human CCL2 and TGF was analyzed using iTaq™ Universal SYBR® Green Supermix (Bio-Rad). The 2^−ΔCT method was used for relative quantification (Schmittgen and Livak, Nature Protoc., 2008, 3: 1101-1108) of mRNA with normalization to 18S. The 2^−ΔCT method was used for relative quantification (Schmittgen and Livak, Nature Protoc., 2008, 3: 1101-1108) of mRNA with normalization to GAPDH mRNA.
# M1 Macrophage Polarization and HRH2 Blocker Treatment. THP1 cells were cultured in RPMI 1640 Medium with GlutaMAX™-I supplement and HEPES and supplemented with 10% FBS and gentamycin (0.05 mg/mL). M1 macrophage polarization from THP-1 was performed as previously described (Yeung et al., J. Hepatol., 2015, 62: 607-616). To generate MO THP-1 macrophages, THP1 cells were treated with PMA 320 nM for 24 hours. To generate M1-polarized THP-1 macrophages, THP-1 cells were treated with […] then with 100 ng/ml LPS and 20 ng/ml IFNγ for 18 hours. […]
# [4] = test system: prognostic liver signature (PLS); experiment: cPLS model: reversal of the prognostic liver signature in HCV-infected Huh7.5.1dif cells; assay type: cell-based, human; settings: Huh7.5.1dif cells infected with HCV Jc1 for 7 days, treated 3 additional days; GSEA
# [5] = test system: HRH2/cAMP/PKA axis; experiment: PLS assessment upon perturbation of the HRH2/cAMP/PKA axis in Huh7.5.1dif cells; assay type: cell-based, human; settings: histamine 10 μM + nizatidine 10 μM, 48 hours
# Protocol: Histamine, 8-CPT, cAMP and H89 Treatment. Huh7.5.1^dif cells were cultured in DMEM containing 1% FBS and 1% DMSO and incubated with histamine (10 μM) or histamine+nizatidine (10 μM) for 48 hours. Fresh medium containing histamine was replenished every 12 hours. For 8-CPT cAMP and H89, Huh7.5.1^dif cells cultured in DMEM 1% DMSO and 1% FBS were incubated with 8-CPT cAMP (100 μM), H89 (1 μM) or DMSO as a control for 48 hours. Fresh medium containing 8-CPT cAMP was replenished every 12 hours.
# Transcriptomic Analysis and PLS Calculation. Gene expression profiling and the 32 gene PLS 32 profiling were performed using 250-500 ng total RNA by using either nCounter Digital Analyzer system (NanoString) or the HumanHT-12 beadarray (Illumina) for the time-course experiments. PLS gene expression was normalized according to 6 housekeeping gene expression using GenePattern genomic analysis toolkits (Hoshida, PLOS ONE, 2010, 5: e15543; Peck et al., Genome Biol., 2006, 7: R61; Reich et al., Nature Genet., 2006, 38: 500-501). Induction or suppression of PLS risk signature was determined as previously reported by using Gene Set Enrichment Analysis (GSEA), implemented in GenePattern genomic analysis toolkits (Hoshida, PLOS ONE, 2010, 5: e15543; Peck et al., Genome Biol., 2006, 7: R61; Reich et al., Nature Genet., 2006, 38: 500-501). PLS was always determined by using CTRL cells as references. Results are presented as simplified heatmaps showing the classification of PLS global status as poor or good prognosis and the significance of induction/suppression of PLS genes (log 10 of false discovery rate (FDR) values). For each experiment, heatmaps show: in the upper part: the classification of PLS global status as poor (orange) or good (green) prognosis, and in the bottom part: the significance of induction (red) or suppression (blue) of PLS poor- or good-prognosis genes. Global status corresponds to the difference between low risk- and high risk-gene expression. The statistic tests, normalized enrichment score (NES) and FDR values are provided for each PLS experiment (poor- and good-prognosis genes variation and global status) in the Source Data file.
# [6] = test system: primary human hepatocytes (PHH); experiment: Cell viability of primary human hepatocytes in 3D culture; assay type: cell-based; settings: 4 days after nizatidine treatment, compared to DMSO
# Protocol: FIG. 9. Proof-of-concept for Therapeutic Impact of Nizatidine in Patient-Derived HCC Spheroids. (A) Absent effect on cell viability in PHH, assessed 4 days after nizatidine treatment in 3D culture. […] (B) Nizatidine decreases HCC cell viability in a 3D patient-derived tumorspheroid model. HCC spheroids were generated from patient HCC tissues with different etiologies. Cell viability was assessed 4 days after treatment by measuring ATP levels. […] The pictures show representative image of patient-derived tumorspheroids (magnification X40). NASH=non-alcoholic steatohepatitis; ALD=alcoholic liver disease. Source data are provided as a Source Data file.
# [7] = activated THP1-derived macrophages
smiles,measurement,setting,value
"CNC(=C[N+](=O)[O-])NCCSCc1csc(CN(C)C)n1 [Nizatidine, N-[2-[[[2-[(dimethylamino)methyl]-4-thizaolyl]methyl]thio]ethyl]-N′-methyl-2-nitro-1,1-ethene-diamine]",plasma concentrations,[1],2000 to 4000 nM
same,pro-inflammatory cytokine expression (IL6),[2],direct effect
same,pro-inflammatory cytokine expression,"[3]; THP1-derived M1-polarized macrophages, nizatidine 48 hours",direct effect
same,IL6 expression,[3]; [7],decreased
same,TNFα expression,[3]; [7],decreased
same,reversal of the poor prognosis status of the prognostic liver signature (PLS),[4],PLS-reversing compounds with highest statistical significance
same,histamine-induced PLS poor-prognosis status,[5],reversal
same,PHH viability,[6],no effect
